In US20240368120A1 (Terns Pharmaceuticals, Inc., priority 2023, published 2024) one finds EC50 and Emax data, which are given here for 17 compounds.

The assay deals with T1, human GLP-1R receptor (Homo sapiens, UniProt P43220).
T1 construct: expressed in transfected cells
The assay is described as follows: GLP-1R low expression cell assay (cAMP TR-FRET, CHO-K1_hGLP-1Rlow_clone10 cells). To be noted: for EC50: cAMP TR-FRET, 30 min at 25° C.; for Emax: maximum activation relative to control GLP-1 peptide agonist. Type of assay: cell-based. The method, then:
Stable cell lines expressing high and low GLP-1R surface expression were generated in CHO-K1 cells transfected (Fugene 6) with a puromycin selectable DNA plasmid encoding human GLP-1R receptor (accession number: NM_002062.5) under control of an EF1A promoter. Transfected cells were seeded into 24-well plates (9,000 cells/well) containing complete medium and incubated in a humidified incubator at 37° C. with 5% carbon dioxide. After overnight incubation, medium was replaced with complete medium supplemented with puromycin (6 μg/mL) and refreshed every 2-3 days to select for stably transfected cells. Individual pools of selected cells were expanded prior to analysis for responsiveness to GLP-1 control peptide using a TR-FRET assay to detect cAMP (LANCE Ultra CAMP Assay, Perkin Elmer). Briefly, cells were collected in Versene solution, plated in 384-well plates (1,000 cells/well) and combined with serially diluted GLP-IR control peptide (10 nL) using an acoustic dispenser (ECHO). Plates were incubated for 30 minutes at 25° C. prior to the addition of EU-CAMP tracer (5 μL) and Ulight-anti-CAMP (5 μL) reagents to each well, followed by 15 minutes incubation at 25° C. TR-FRET signal was detected using an En Vision Multimode Plate Reader (excitation=320 nm; emission=615 and 655 nm). Dose-response curves were used to generate EC50 values as a measure of responsiveness to the GLP-IR control peptide. Selected cell lines were monitored for responsiveness over multiple passages to ensure stability. […] Briefly, GLP-IR expression was analyzed by flow cytometry using a fluorescein-labeled Exendin-4 peptide fluorescent probe (FLEX). Cells were harvested in Versene solution and washed 3-times with PBS+0.5% BSA before incubation with FLEX reagent (10 μM) for 2 hours at room temperature. After incubation, cells were washed 3-times in PBS+0.5% BSA before final resuspension in PBS prior to analysis by flow cytometry to measure FLEX mean fluorescence intensity (MFI) as a measure of GLP-IR expression on the cell surface.
For compound testing in the CHO-K1_hGLP-IRlow_clone10 cell line, cells were seeded in 384-well plates (1,000 cells/well). Test compounds were serially diluted in DMSO (10-point, 3-fold dilution), added to wells using an ECHO dispenser (10 nL/well) and plates were centrifuged for 1 min and agitated for 2 min at room temperature prior to 30-minute incubation at 25° C. After incubation, Eu-CAMP (5 μL) and Ulight-anti-cAMP (5 μL) reagents were added to each well, followed by centrifugation for 1 minute, agitation for 2 minutes at room temperature, and final incubation of the plates at 25° C. for 15 minutes. Plates were read using an EnVision microplate reader (excitation=320 nm; emission=615 and 655 nm). Dose-response curves were generated from duplicate wells based on percent activation calculated relative to a control GLP-1 peptide agonist that was run in parallel. EC50 values were determined by fitting percent activation as a function of compound concentration using the Hill equation (XLfit).
The compounds tested were compound samples prepared according to the General Procedures described in the Examples section.

T1 sequence (P43220 24-463): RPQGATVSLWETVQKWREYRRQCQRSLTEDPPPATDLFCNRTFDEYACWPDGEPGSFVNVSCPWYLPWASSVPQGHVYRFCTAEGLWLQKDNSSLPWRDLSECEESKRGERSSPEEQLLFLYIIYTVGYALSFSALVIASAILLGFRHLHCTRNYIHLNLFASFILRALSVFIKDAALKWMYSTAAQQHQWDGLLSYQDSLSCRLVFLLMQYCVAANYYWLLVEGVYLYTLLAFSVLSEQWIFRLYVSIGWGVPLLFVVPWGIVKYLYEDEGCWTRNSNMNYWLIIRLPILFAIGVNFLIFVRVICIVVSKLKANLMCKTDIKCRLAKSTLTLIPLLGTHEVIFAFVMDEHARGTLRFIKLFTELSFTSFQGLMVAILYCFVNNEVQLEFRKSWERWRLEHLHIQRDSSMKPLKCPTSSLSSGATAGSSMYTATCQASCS

In turn, `COc1cc(C(=O)O)cc2c1nc(N(C)[C@H]1CC[C@H](c3cccc(OCc4ccc(C#N)cc4F)n3)CC1)n2C` [Compound 178, 2-(((1r,4r)-4-(6-((4-Cyano-2-fluorobenzyl)oxy)pyridin-2-yl)cyclohexyl)(methyl)amino)-4-methoxy-1-methyl-1H-benzo[d]imidazole-6-carboxylic acid] had a concentration for a half-maximal effect (EC50) below 10 nM and an Emax above 85%.

With `CC(F)Oc1cc(C(=O)O)cc2c1nc(CN1CCC(c3cccc(OCc4ccc(Cl)cc4F)n3)CC1)n2C` (stereo not drawn) [Compound 359, 2-((4-(6-((4-Chloro-2-fluorobenzyl)oxy)pyridin-2-yl)piperidin-1-yl)methyl)-4-(1-fluoroethoxy)-1-methyl-1H-benzo[d]imidazole-6-carboxylic acid], the EC50 was below 10 nM and the Emax was above 85%.

Regarding `Cn1c(CN2CCC(c3cccc(OCc4ccccc4Cl)n3)CC2)nc2c(OC(F)F)cc(C(=O)O)cc21` [Compound 248, 2-((4-(6-((2-Chlorobenzyl)oxy)pyridin-2-yl)piperidin-1-yl)methyl)-4-(difluoromethoxy)-1-methyl-1H-benzo[d]imidazole-6-carboxylic acid], the EC50 fell in the range of 100 to 1000 nM and the Emax was above 85%.

As for `CCCOc1cc(C(=O)O)cc2c1nc(CN1CCC(c3cccc(OCc4ccc(Cl)cc4F)n3)CC1)n2C` [Compound 322, 2-((4-(6-((4-chloro-2-fluorobenzyl)oxy)pyridin-2-yl)piperidin-1-yl)methyl)-1-methyl-4-propoxy-1H-benzo[d]imidazole-6-carboxylic acid], the EC50 fell in the range of 10 to 100 nM and the Emax was above 85%.

Compound `O=C(O)c1ccc2c(nc(CN3CCC(c4cccc(OCc5ccc(Cl)cc5F)n4)CC3)n2C[C@@H]2CCO2)c1O` [Compound 245, (S)-2-((4-(6-((4-Chloro-2-fluorobenzyl)oxy)pyridin-2-yl)piperidin-1-yl)methyl)-4-hydroxy-1-(oxetan-2-ylmethyl)-1H-benzo[d]imidazole-5-carboxylic acid] came in with an EC50 below 10 nM and an Emax above 85%.

`CC(CO)Oc1cc(C(=O)O)cc2c1nc(CN1CCC(c3cccc(OCc4ccc(Cl)cc4F)n3)CC1)n2C` (stereo not drawn) [Compound 320, 2-((4-(6-((4-Chloro-2-fluorobenzyl)oxy)pyridin-2-yl)piperidin-1-yl)methyl)-4-((1-hydroxypropan-2-yl)oxy)-1-methyl-1H-benzo[d]imidazole-6-carboxylic acid]: the EC50 lay in the range of 10 to 100 nM and the Emax was above 85%.

Turning to `Cn1c(Cc2ccc(Oc3cccc(COc4ccc(Cl)cc4F)n3)cc2F)nc2c(OC(F)F)cc(C(=O)O)cc21` [Compound 367, 2-(4-((6-((4-Chloro-2-fluorophenoxy)methyl)pyridin-2-yl)oxy)-2-fluorobenzyl)-4-(difluoromethoxy)-1-methyl-1H-benzo[d]imidazole-6-carboxylic acid], the EC50 was above 1000 nM and the Emax is above 85%.

Regarding `COc1cc(C(=O)O)cc2nc(CN3CCC(c4cccc(OCc5ccc(Cl)cc5F)n4)CC3)n(CF)c12` [Compound 192, 2-((4-(6-((4-Chloro-2-fluorobenzyl)oxy)pyridin-2-yl)piperidin-1-yl)methyl)-1-(fluoromethyl)-7-methoxy-1H-benzo[d]imidazole-5-carboxylic acid], the EC50 was above 1000 nM and the Emax fell in the range of 50 to 85%.

The compound `Cn1c(CN2CCC(c3cccc(OCc4ccc(Cl)cc4F)n3)CC2)nc2c(OC(F)(F)CF)cc(C(=O)O)cc21` [Compound 235, 2-((4-(6-((4-Chloro-2-fluorobenzyl)oxy)pyridin-2-yl)piperidin-1-yl)methyl)-1-methyl-4-(1,1,2-trifluoroethoxy)-1H-benzo[d]imidazole-6-carboxylic acid] showed an EC50 of 10 to 100 nM and an Emax above 85%.

Turning to `Cn1c(CN2CCC(c3cccc(OCc4cc(F)c(C#N)cc4F)n3)CC2)nc2c(OC(F)F)cc(C(=O)O)cc21` [Compound 366, 2-((4-(6-((4-Cyano-2,5-difluorobenzyl)oxy)pyridin-2-yl)piperidin-1-yl)methyl)-4-(difluoromethoxy)-1-methyl-1H-benzo[d]imidazole-6-carboxylic acid], the half-maximal effective concentration (EC50) was below 10 nM and the Emax was above 85%.

As to `Cn1c(CN2CCC(c3cccc(OCc4ccc(Cl)cc4F)n3)CC2)nc2c(OC(F)F)nc(C(=O)O)cc21` [Compound 253, 2-((4-(6-((4-Chloro-2-fluorobenzyl)oxy)pyridin-2-yl)piperidin-1-yl)methyl)-4-(difluoromethoxy)-1-methyl-1H-imidazo[4,5-c]pyridine-6-carboxylic acid], the EC50 lay in the range of 10 to 100 nM.

`C[C@]1(c2ccc(Cl)cn2)Oc2cccc(C3CCN(Cc4nc5c6c(c(C(=O)O)cc5n4C[C@@H]4CCO4)OCCO6)CC3)c2O1` [Compound 93, 2-((4-((S)-2-(5-Chloropyridin-2-yl)-2-methylbenzo[d][1,3]dioxol-4-yl)piperidin-1-yl)methyl)-3-(((S)-oxetan-2-yl)methyl)-7,8-dihydro-3H-[1,4]dioxino[2′,3′:3,4]benzo[1,2-d]imidazole-5-carboxylic acid] registered an EC50 below 10 nM and an Emax above 85%.

Consider `Cn1c(CN2CCC(c3cncc(OCc4ccc(Cl)cc4F)n3)CC2)nc2c(OC(F)F)cc(C(=O)O)cc21` [Compound 374, 2-((4-(6-((4-Chloro-2-fluorobenzyl)oxy)pyrazin-2-yl)piperidin-1-yl)methyl)-4-(difluoromethoxy)-1-methyl-1H-benzo[d]imidazole-6-carboxylic acid], for which the EC50 was in the range of 100 to 1000 nM and the Emax is above 85%.

Turning to `COc1cc(C(=O)O)cc2c1nc(CN1CCC(c3cccc(OCc4ccc(C#N)c5c4OCC5)n3)CC1)n2C` [Compound 283, 2-((4-(6-((4-Cyano-2,3-dihydrobenzofuran-7-yl)methoxy)pyridin-2-yl)piperidin-1-yl)methyl)-4-methoxy-1-methyl-1H-benzo[d]imidazole-6-carboxylic acid], the EC50 is below 10 nM and the Emax was above 85%.

On to `Cn1c(CN2CCC(c3cccc(OCc4ccc(Cl)cc4F)n3)CC2)nc2c(OC3CC3)cc(C(=O)O)cc21` [Compound 215, 2-((4-(6-((4-Chloro-2-fluorobenzyl)oxy)pyridin-2-yl)piperidin-1-yl)methyl)-4-cyclopropoxy-1-methyl-1H-benzo[d]imidazole-6-carboxylic acid], for which the EC50 was below 10 nM and the Emax was above 85%.

`Cn1c(CN2CCC(c3cccc(OCc4ccc(C#N)cc4F)n3)CC2)nc2c(OC(C)(C)CF)cc(C(=O)O)cc21` [Compound 160, 2-((4-(6-((4-Cyano-2-fluorobenzyl)oxy)pyridin-2-yl)piperidin-1-yl)methyl)-4-((1-fluoro-2-methylpropan-2-yl)oxy)-1-methyl-1H-benzo[d]imidazole-6-carboxylic acid] gave an EC50 of 100 to 1000 nM and an Emax above 85%.

In turn, `Cn1c(CN2CCC(c3ccc(Cl)c(OCc4ccc(Cl)cc4F)c3)CC2)nc2c(OC(F)F)cc(C(=O)O)cc21` [Compound 194, 2-((4-(4-Chloro-3-((4-chloro-2-fluorobenzyl)oxy)phenyl)piperidin-1-yl)methyl)-4-(difluoromethoxy)-1-methyl-1H-benzo[d]imidazole-6-carboxylic acid] registered an EC50 of 100 to 1000 nM and an Emax above 85%.
